Data from publication PMC12274840 (The Journal of Biological Chemistry, 2025).
Converted amounts (≈) assume the structure as drawn. Read-outs that look alike come from different tables or passages of the source.

Tests used:
[1] = test system: E. coli KA797 cells carrying TEM-1 position 105 library; type: cell-based; conditions: for Fi carbenicillin AVG: average of replicates
TEM-1 Y105G = TEM-1 Y105G (Escherichia coli, UniProt P62593, Y103G); assay: Steady-state kinetics of substrate hydrolysis, TEM-1 Y105G; type: biochemical; conditions: phosphate buffer pH 6.4, 25 °C
CTX-M-14 Y105G = target: T1, CTX-M-14 Y105G (Escherichia coli, UniProt Q9L5C7, Y108G); type: biochemical
T1 construct: 29 to 291 of CTX-M-14 (Q9L5C7); His tag with TEV cleavage site (N); made in house; host or cells: E. coli BL21 (DE3) pLysS

[2] = test system: E. coli KA797 cells carrying pUK21 with BlaC I105G; type: cell-based, Escherichia coli; conditions: antibiotic alone
[3] = test system: E. coli KA797 cells carrying pUK21 with BlaC I105R; type: cell-based, Escherichia coli; conditions: antibiotic alone
BlaC WT = target: T2, BlaC WT (Mycobacterium tuberculosis, UniProt P9WKD3); type: biochemical; conditions: pH 6.4
T2 construct: correspond to residue numbers 41-307 of BlaC (Uniprot entry P9WKD3-1); His tag with TEV cleavage site (N); made in house; host or cells: E. coli BL21 (DE3) pLysS

[4] = test system: E. coli KA797 cells carrying pUK21 with TEM-1 Y105G; type: cell-based, Escherichia coli; conditions: antibiotic alone
[5] = test system: E. coli KA797 cells carrying pUK21 with NmcA (pelB/Sec); assay: microbe, parasite or virus in culture; type: cell-based; conditions: Escherichia coli, antibiotic alone
[6] = test system: E. coli KA797 cells carrying pUK21 with TEM-1 WT (Sec); assay: microbe, parasite or virus in culture; type: cell-based; conditions: Escherichia coli, antibiotic alone
[7] = test system: E. coli KA797 cells carrying pUK21 with TEM-1 Y105R; type: cell-based, Escherichia coli; conditions: antibiotic alone

SMILES: CC1(C)S[C@@H]2[C@H](NC(=O)C(C(=O)O)c3ccccc3)C(=O)N2[C@H]1C(=O)O (stereo partly drawn) [carbenicillin]
- Fi CAR 2 ([1]; AA 105 Glu, replicate 2): -0.895
- Fi carbenicillin AVG ([1]; AA 105 Gly): -0.181
- Fi CAR 1 ([1]; AA 105 Gly, replicate 1): -0.158
- Fi CAR 2 ([1]; AA 105 Gly, replicate 2): -0.204
- Fi carbenicillin AVG ([1]; AA 105 His): -0.182
- Fi CAR 1 ([1]; AA 105 His, replicate 1): -0.177
- Fi CAR 2 ([1]; AA 105 His, replicate 2): -0.187
- Significance (Average fitnes carbenicillin) ([1]; AA 105 Ile): -
- Fi carbenicillin AVG ([1]; AA 105 Ile): -0.707
- Fi CAR 1 ([1]; AA 105 Ile, replicate 1): -0.683
- Fi CAR 2 ([1]; AA 105 Ile, replicate 2): -0.731
- Significance (Average fitnes carbenicillin) ([1]; AA 105 Leu): -
- Fi carbenicillin AVG ([1]; AA 105 Leu): -0.631
- Fi CAR 1 ([1]; AA 105 Leu, replicate 1): -0.615
- Fi CAR 2 ([1]; AA 105 Leu, replicate 2): -0.647
- Significance (Average fitnes carbenicillin) ([1]; AA 105 Lys): -
- Fi carbenicillin AVG ([1]; AA 105 Lys): -0.496
- Fi CAR 1 ([1]; AA 105 Lys, replicate 1): -0.486
- Fi CAR 2 ([1]; AA 105 Lys, replicate 2): -0.506
- Significance (Average fitnes carbenicillin) ([1]; AA 105 Met): -
- Fi carbenicillin AVG ([1]; AA 105 Met): -0.369
- Fi CAR 1 ([1]; AA 105 Met, replicate 1): -0.357
- Fi CAR 2 ([1]; AA 105 Met, replicate 2): -0.382
- Fi carbenicillin AVG ([1]; AA 105 Phe): -0.152
- Fi CAR 1 ([1]; AA 105 Phe, replicate 1): -0.133
- Fi CAR 2 ([1]; AA 105 Phe, replicate 2): -0.171
- Significance (Average fitnes carbenicillin) ([1]; AA 105 Pro): -
- Fi carbenicillin AVG ([1]; AA 105 Pro): -0.936
- Fi CAR 1 ([1]; AA 105 Pro, replicate 1): -0.929
- Fi CAR 2 ([1]; AA 105 Pro, replicate 2): -0.943
- Significance (Average fitnes carbenicillin) ([1]; AA 105 Ser): -
- Fi carbenicillin AVG ([1]; AA 105 Ser): -0.354
- Fi CAR 1 ([1]; AA 105 Ser, replicate 1): -0.356
- Fi CAR 2 ([1]; AA 105 Ser, replicate 2): -0.352
- Significance (Average fitnes carbenicillin) ([1]; AA 105 Thr): -
- Fi carbenicillin AVG ([1]; AA 105 Thr): -0.562
- Fi CAR 1 ([1]; AA 105 Thr, replicate 1): -0.532
- Fi carbenicillin AVG ([1]; AA 105 Trp): -0.027
- Fi CAR 1 ([1]; AA 105 Trp, replicate 1): -0.012
- Fi CAR 2 ([1]; AA 105 Trp, replicate 2): -0.043
- Fi carbenicillin AVG ([1]; AA 105 Tyr): 0.000
- Fi CAR 1 ([1]; AA 105 Tyr, replicate 1): 0.000
- Fi CAR 2 ([1]; AA 105 Tyr, replicate 2): 0.000
- Significance (Average fitnes carbenicillin) ([1]; AA 105 Val): -
- Fi carbenicillin AVG ([1]; AA 105 Val): -0.544
- Fi CAR 1 ([1]; AA 105 Val, replicate 1): -0.508
- Fi CAR 2 ([1]; AA 105 Val, replicate 2): -0.579
- WT abs Fi 1 ([1]; absolute fitness of TEM-1 WT, carbenicillin, replicate 1): 0.724
- WT abs Fi 2 ([1]; absolute fitness of TEM-1 WT, carbenicillin, replicate 2): 0.359
- kcat (TEM-1 Y105G): 59.0 ± 0.3 s⁻¹
- kcat (CTX-M-14 Y105G; phosphate buffer pH 6.4, 25 °C): 11 ± 2 s⁻¹
- Km (CTX-M-14 Y105G; read-out: KM^app, phosphate buffer pH 6.4, 25 °C): 228 ± 61 µM
- MIC [2]: 800 µg/mL (≈ 2.11 mM)
- MIC [3]: 1600 µg/mL (≈ 4.23 mM)
- kcat (BlaC WT): 0.51 ± 00.2 s⁻¹
- Km (BlaC WT; read-out: KM^app): 5.5 ± 0.7 µM
- MIC [4]: 16,000 μg/ml
- MIC [5]: 200 µg/mL (≈ 0.529 mM)
- MIC [6]: 32000 µg/mL (≈ 84.6 mM)
- MIC [7]: 4000 µg/mL (≈ 10.6 mM)
